Source: patent US7651978B2, “Selective herbicides based on a substituted phenylsulphonylaminocarbonyl-triazolinone” (Arysta LifeScience North America, LLC, priority 1998, dated 2010)
Where a name gives a salt, the structure may show the parent alone.

Tests used:
Agropyron = test: Post-emergence test/greenhouse; assay type: in vivo; conditions: 60 g ai./ha, after three weeks
Description: (§1) Post-Emergence Test/Greenhouse [table] To produce a suitable preparation of active compound, 1 part by weight of active compound is mixed with the stated amount of solvent, the stated amount of emulsifier is added and the concentrate is diluted with water to the desired concentration. Test plants which have a height of 5-15 cm are sprayed with the preparation of active compound such that the particular amounts of active compound desired are applied per unit area. The concentration of the spray liquor is chosen so that the particular amounts of active compound desired are applied in 500 ml of water/ha. After three weeks, the degree of damage to the plants is assessed in % damage in comparison to the development of the untreated control. The figures denote: • 0%=no effect (like untreated control) • 100%=total destruction

Alopecurus = test: Post-emergence test/greenhouse; assay type: in vivo; conditions: 504 h, after three weeks, read-out: degree of damage, Alopecurus
Description: as §1

Avena = test: Post-emergence test/greenhouse; assay type: in vivo; conditions: after three weeks
Description: as §1

Bromus = test: Post-emergence test/greenhouse; assay type: in vivo; conditions: 60 g ai./ha, after three weeks
Description: as §1

Lolium = test: Post-emergence test/greenhouse; assay type: in vivo; conditions: 60 g ai./ha, after three weeks
Description: as §1

Setaria = test: Post-emergence test/greenhouse; assay type: in vivo; conditions: after three weeks
Description: as §1

Veronica = test: Post-emergence test/greenhouse; assay type: in vivo; conditions: 60 g ai./ha, after three weeks
Description: as §1

Wheat [1] = test: Post-emergence test/greenhouse; assay type: in vivo; conditions: wheat, in vivo, 3 weeks
Description: as §1

wheat [2] = test: Post-emergence tests/outdoors (Example C, Canada), crop damage; assay type: in vivo, summer wheat; conditions: in vivo
Description: Post-Emergence Tests/Outdoors In addition to the comparative compounds (B) and (D), the sodium salt of the compound of the formula (I) was tested under outdoor conditions in the main cultivation areas of summer wheat in Canada against economically important weeds. The small-plot experiments were carried out on cultivated land under agricultural use. Areas with particularly extensive weed growth were chosen preferably. The active compounds were applied across the area by the spray method, with an average droplet size. To produce a useful preparation of active compound, the active compounds were formulated as 70 WP (70% w/w water-dispersible powder) and applied with customary amounts of water. Wetting of the plants was improved by addition of a surface-active substance (SAS) in the concentrations recommended by the respective manufacturer. To assess the crop compatibility, from 1 to 8 weeks after the treatment, plant growth inhibitions or […] of the leaf area were assessed in % damage in comparison to the development of the untreated control. At different intervals after the treatment, the herbicidal activity was assessed as % reduction in comparison to the untreated control, based on the weed development. The figures denote: • 0%=no damage of the crops or no herbicidal effect, • 100%=total destruction of the crops or the weeds.

SMILES: COc1nn(C(=O)NS(=O)(=O)c2ccccc2OC(F)(F)F)c(=O)n1C [(I)-Na-salt, 2-(2-trifluoromethoxy-phenylsulphonylaminocarbonyl)-4-methyl-5-methoxy-2,4-dihydro-3H-1,2,4-triazol-3-one]
- degree of damage, Agropyron (Agropyron): 70%
- pest or weed control at 60 g/ha (Alopecurus; 60 g ai./ha): 80%
- pest or weed control at 125 g/ha (Alopecurus; 125 g ai./ha): 90%
- degree of damage, Avena (Avena; 60 g ai./ha): 70%
- degree of damage, Avena (Avena; 125 g ai./ha): 90%
- degree of damage, Bromus (Bromus): 90%
- degree of damage, Lolium (Lolium): 90%
- degree of damage, Setaria (Setaria; 60 g ai./ha): 100%
- degree of damage, Setaria (Setaria; 125 g ai./ha): 95%
- degree of damage, Veronica (Veronica): 90%
- degree of damage, Wheat (Wheat [1]): 0%
- crop compatibility compared with comparative compounds (B) and (D), in words (wheat [2]): approximately the same compatibility
